Source: patent publication US20110178143A1, “THERAPEUTIC COMPOUNDS” (ALLERGAN, INC., priority 2007, published 2011)
Read-outs that look alike come from different tables or passages of the source.

What was measured:
alpha2B receptor = target: T1, alpha2B receptor (Homo sapiens, UniProt P18089); experiment: Receptor Selection and Amplification Technology (RSAT) assay, alpha 2B; type: cell-based; conditions: for Emax: read-out: Alpha 2B intrinsic activity (IA), in parentheses
T1 construct: expressed in transfected cells; host or cells: NIH-3T3 cells
T1 sequence (P18089 1-450): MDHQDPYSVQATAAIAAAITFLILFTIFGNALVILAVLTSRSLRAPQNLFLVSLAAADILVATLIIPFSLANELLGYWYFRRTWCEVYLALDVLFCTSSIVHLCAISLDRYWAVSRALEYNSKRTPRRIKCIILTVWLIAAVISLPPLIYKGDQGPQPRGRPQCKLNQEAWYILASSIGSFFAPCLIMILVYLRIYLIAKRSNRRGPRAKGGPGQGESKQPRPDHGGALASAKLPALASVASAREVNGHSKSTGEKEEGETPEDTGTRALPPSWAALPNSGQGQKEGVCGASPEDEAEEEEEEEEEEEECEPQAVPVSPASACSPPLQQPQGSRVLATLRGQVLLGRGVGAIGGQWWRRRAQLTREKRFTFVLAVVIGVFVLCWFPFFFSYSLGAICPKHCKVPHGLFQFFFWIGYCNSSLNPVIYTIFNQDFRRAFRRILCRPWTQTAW
Procedure: (§1) Receptor Selection and Amplification Technology (RSAT) Assay
(§2) The RSAT assay measures a receptor-mediated loss of contact inhibition that results in selective proliferation of receptor-containing cells in a mixed population of confluent cells. The increase in cell number is assessed with an appropriate transfected marker gene such as β-galactosidase, the activity of which can be easily measured in a 96-well format. Receptors that activate the G protein, Gq, elicit this response. Alpha2 receptors, which normally couple to Gi, activate the RSAT response when coexpressed with a hybrid Gq protein that has a Gi receptor recognition domain, called Gq/i5.
(§3) NIH-3T3 cells are plated at a density of 2×10^6 cells in 15 cm dishes and maintained in Dulbecco's modified Eagle's medium supplemented with 10% calf serum. One day later, cells are cotransfected by calcium phosphate precipitation with mammalian expression plasmids encoding p-SV-β-galactosidase (5-10 μg), receptor (1-2 μg) and G protein (1-2 μg). 40 μg salmon sperm DNA may also be included in the transfection mixture. Fresh media is added on the following day and 1-2 days later, cells are harvested and frozen in 50 assay aliquots. Cells are thawed and 100 μl added to 100 μl aliquots of various concentrations of drugs in triplicate in 96-well dishes. Incubations continue 72-96 hr at 37° C. After washing with phosphate-buffered saline, β-galactosidase enzyme activity is determined by adding 200 μl of the chromogenic substrate (consisting of 3.5 mM o-nitrophenyl-β-D-galactopyranoside and 0.5% nonidet P-40 in phosphate buffered saline), incubating overnight at 30° C. and measuring optical density at 420 nm. The absorbance is a measure of enzyme activity, which depends on cell number and reflects a receptor-mediated cell proliferation. The efficacy or intrinsic activity is calculated as a ratio of the maximal effect of the drug to the maximal effect of a standard full agonist for each receptor subtype. Brimonidine, also called UK14304, the chemical structure of which is shown below, is used as the standard agonist for the alpha2A, alpha2B and alpha2c receptors. The EC50 is the concentration at which the drug effect is half of its maximal effect.
(§4) EC50 values are nanomolar. ND stands for “not determinable” at concentrations less than 10 micromolar. IA stands for “intrinsic activity.”

alpha2C receptor = target: T2, alpha2C receptor (Homo sapiens, UniProt P18825); experiment: Receptor Selection and Amplification Technology (RSAT) assay, alpha 2C; type: cell-based; conditions: for Emax: RSAT, maximal effect relative to standard full agonist brimonidine (UK14304), read-out: Alpha 2C intrinsic activity (IA), in parentheses
T2 construct: expressed in transfected cells; host or cells: NIH-3T3 cells
T2 sequence (P18825 1-462): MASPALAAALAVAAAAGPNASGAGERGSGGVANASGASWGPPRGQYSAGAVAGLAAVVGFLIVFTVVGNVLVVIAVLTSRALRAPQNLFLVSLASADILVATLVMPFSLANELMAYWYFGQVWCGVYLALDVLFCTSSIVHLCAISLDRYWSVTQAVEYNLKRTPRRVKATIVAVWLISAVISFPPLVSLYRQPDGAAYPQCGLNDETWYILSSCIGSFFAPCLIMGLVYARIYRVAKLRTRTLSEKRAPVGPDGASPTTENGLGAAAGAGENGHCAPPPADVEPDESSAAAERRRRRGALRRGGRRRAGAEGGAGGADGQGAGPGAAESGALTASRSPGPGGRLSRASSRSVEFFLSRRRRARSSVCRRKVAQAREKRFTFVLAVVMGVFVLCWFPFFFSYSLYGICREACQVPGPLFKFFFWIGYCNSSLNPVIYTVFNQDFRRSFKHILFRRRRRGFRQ
Procedure: as §1, §2, §3, §4

alpha2A receptor = target: T3, alpha2A receptor (Homo sapiens, UniProt P08913); experiment: cell-based; conditions: for Emax: read-out: Alpha 2A intrinsic activity (IA), in parentheses
T3 sequence (P08913 1-465): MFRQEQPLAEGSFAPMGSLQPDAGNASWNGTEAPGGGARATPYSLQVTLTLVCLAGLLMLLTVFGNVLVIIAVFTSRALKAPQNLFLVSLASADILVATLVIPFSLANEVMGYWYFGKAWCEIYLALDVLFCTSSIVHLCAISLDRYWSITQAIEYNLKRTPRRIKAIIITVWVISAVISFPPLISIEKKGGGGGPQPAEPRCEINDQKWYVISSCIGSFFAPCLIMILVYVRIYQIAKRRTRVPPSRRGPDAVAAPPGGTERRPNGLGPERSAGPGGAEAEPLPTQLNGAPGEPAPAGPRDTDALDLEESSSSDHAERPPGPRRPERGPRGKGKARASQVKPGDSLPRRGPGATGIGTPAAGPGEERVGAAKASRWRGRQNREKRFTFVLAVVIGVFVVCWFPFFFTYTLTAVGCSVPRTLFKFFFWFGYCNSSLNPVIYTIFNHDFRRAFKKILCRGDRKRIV
Procedure: NIH-3T3 cells are plated at a density of 2×10^6 cells in 15 cm dishes and maintained in Dulbecco's modified Eagle's medium supplemented with 10% calf serum. One day later, cells are cotransfected by calcium phosphate precipitation with mammalian expression plasmids encoding p-SV-β-galactosidase (5-10 μg), receptor (1-2 μg) and G protein (1-2 μg). 40 μg salmon sperm DNA may also be included in the transfection mixture. Fresh media is added on the following day and 1-2 days later, cells are harvested and frozen in 50 assay aliquots. Cells are thawed and 100 μl added to 100 μl aliquots of various concentrations of drugs in triplicate in 96-well dishes. Incubations continue 72-96 hr at 37° C. After washing with phosphate-buffered saline, β-galactosidase enzyme activity is determined by adding 200 μl of the chromogenic substrate (consisting of 3.5 mM o-nitrophenyl-β-D-galactopyranoside and 0.5% nonidet P-40 in phosphate buffered saline), incubating overnight at 30° C. and measuring optical density at 420 nm. The absorbance is a measure of enzyme activity, which depends on cell number and reflects a receptor-mediated cell proliferation. The efficacy or intrinsic activity is calculated as a ratio of the maximal effect of the drug to the maximal effect of a standard full agonist for each receptor subtype. […] The EC50 is the concentration at which the drug effect is half of its maximal effect.

[1] = RSAT in transfected NIH-3T3 cells, nd = not determinable at concentrations less than 10 micromolar, read-out: Alpha 2C EC50
[2] = RSAT in transfected NIH-3T3 cells, nd = not determinable at concentrations less than 10 micromolar, read-out: Alpha 2B EC50

Row | SMILES | EC50 (alpha2B receptor) | Emax (alpha2B receptor) | EC50 (alpha2C receptor; [1]) | Emax (alpha2C receptor) | Emax (alpha2A receptor) | EC50 (alpha2C receptor) | EC50 (alpha2B receptor; [2]) | EC50 (alpha2A receptor)
1 | Cc1cccc2c1CCC2NC1=NCCN1 (stereo not shown) | 5.7 nM | 98% | 429 nM | 38% | 20% |  |  | 
2 | Cc1cccc2c1CC[C@H]2NC1=NCCN1 | 33.4 nM | 106% |  | 11% | 11% |  |  | 
3 | Cc1cccc2c1CC[C@@H]2NC1=NCCN1 | 4.5 nM | 125% |  | 62% | 16% | 82 nM |  | 
4 | Brc1cccc2c1CCC2NC1=NCCN1 (stereo not shown) | 12.2 nM | 71% |  | 12% | 7% |  |  | 
5 | c1ccc2c(c1)CCC2NC1=NCCN1 (stereo not shown) | 17 nM | 93% | 207 nM | 46% | 3% |  |  | 
6 | c1ccc2c(c1)CC[C@@H]2NC1=NCCN1 | 43 nM | 82% |  | 11% | 4% |  |  | 
7 | Cc1ccc2c(c1)C(NC1=NCCN1)CC2 (stereo not shown) |  | 34% |  | 7% | 7% |  | 473 nM | 
8 | c1ccc2c(c1)CC(NC1=NCCN1)C2 |  | 36% |  | 5% | 5% |  | 61 nM | 
9 | Cc1cccc2c1CC[C@@H]2NC1=NCCS1 |  | 138% | 23 nM | 96% | 57% |  | 3.4 nM | 143 nM
10 | CC1CC(NC2=NCCS2)c2ccccc21 (stereo not shown) | 10 nM | 99% |  | 41% | 25% | 86 nM |  | 180 nM
11 | CC1CC(NC2=NCCO2)c2ccccc21 (stereo not shown) |  | 112% | 19.8 nM | 50% | 25% |  | 2.2 nM | 7 nM
12 | c1ccc2c(c1)CCC2NC1=NCCS1 (stereo not shown) | 7.5 nM | 107% |  | 102% | 14% | 54 nM |  | 
